What was measured:
Assay in all cases: DSF 100 kinase selectivity screen;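 note: compound tested at 20 µM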
Assay type in all cases: binding
[1] = target: T1, ~100 representative kinases (Homo sapiens, UniProt Q15375); settings: Protein EPHA7; average of three replicates
T1 construct: Recombinant protein kinase domains with a concentration of 2 μM
Method in brief: (§1)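 Each kinase domain, at 2 μM, is mixed with 20 μM test compound and SYPRO Orange in Hepes (20 mM, pH 7.5) with 500 mM NaCl. Temperature is then raised at 3°C/min and fluorescence-monitored unfolding yields the melting temperature change, ΔTm in degrees Celsius.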

[2] = target: T2, ~100 representative kinases (Homo sapiens, UniProt Q96L34); settings: protein MARK4; average of three replicates
T2 construct: Recombinant protein kinase domains with a concentration of 2 μM
T2 sequence (Q96L34 1-752): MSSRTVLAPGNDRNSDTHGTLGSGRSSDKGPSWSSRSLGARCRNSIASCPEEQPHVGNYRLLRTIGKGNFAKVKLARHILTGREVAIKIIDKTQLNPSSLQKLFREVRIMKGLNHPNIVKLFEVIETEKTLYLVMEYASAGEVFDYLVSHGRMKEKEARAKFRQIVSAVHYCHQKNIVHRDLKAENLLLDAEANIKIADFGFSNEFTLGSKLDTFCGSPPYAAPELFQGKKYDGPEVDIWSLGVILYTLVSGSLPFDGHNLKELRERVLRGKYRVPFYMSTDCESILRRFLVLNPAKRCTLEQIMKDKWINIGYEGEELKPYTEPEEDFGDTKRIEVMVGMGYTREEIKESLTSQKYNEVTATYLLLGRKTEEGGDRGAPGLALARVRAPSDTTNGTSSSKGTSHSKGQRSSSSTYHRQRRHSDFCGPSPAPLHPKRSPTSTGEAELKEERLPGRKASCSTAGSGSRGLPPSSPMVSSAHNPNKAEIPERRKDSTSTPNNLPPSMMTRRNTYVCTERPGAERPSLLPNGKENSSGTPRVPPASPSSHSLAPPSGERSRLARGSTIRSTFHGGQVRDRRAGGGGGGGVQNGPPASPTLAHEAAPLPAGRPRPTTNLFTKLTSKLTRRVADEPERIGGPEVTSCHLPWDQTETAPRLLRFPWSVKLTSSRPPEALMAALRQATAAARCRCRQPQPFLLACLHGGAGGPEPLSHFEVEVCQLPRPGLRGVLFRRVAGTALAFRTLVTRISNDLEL
Method in brief: as §1

[3] = target: T3, ~100 representative kinases (Homo sapiens, UniProt Q99640); settings: protein PKMYT1; average of three replicates
T3 construct: Recombinant protein kinase domains with a concentration of 2 μM
T3 sequence (Q99640 1-499): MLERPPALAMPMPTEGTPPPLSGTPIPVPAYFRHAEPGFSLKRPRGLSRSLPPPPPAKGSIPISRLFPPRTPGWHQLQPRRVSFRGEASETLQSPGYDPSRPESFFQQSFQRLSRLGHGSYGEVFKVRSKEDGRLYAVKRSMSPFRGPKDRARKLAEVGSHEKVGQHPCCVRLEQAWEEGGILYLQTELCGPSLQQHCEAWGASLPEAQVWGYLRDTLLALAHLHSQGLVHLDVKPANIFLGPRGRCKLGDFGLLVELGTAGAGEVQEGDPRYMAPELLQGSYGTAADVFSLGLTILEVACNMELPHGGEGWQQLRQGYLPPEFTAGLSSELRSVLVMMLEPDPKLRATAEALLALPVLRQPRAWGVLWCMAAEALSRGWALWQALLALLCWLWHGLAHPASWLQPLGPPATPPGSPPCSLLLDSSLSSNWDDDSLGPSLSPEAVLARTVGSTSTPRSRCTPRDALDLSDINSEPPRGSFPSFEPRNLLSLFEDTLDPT
Method in brief: as §1

[4] = target: T4, ~100 representative kinases (Homo sapiens, UniProt Q96RR4); settings: Protein CAMKK2; average of three replicates
T4 construct: Recombinant protein kinase domains with a concentration of 2 μM
Method in brief: as §1

[5] = target: T5, ~100 representative kinases (Homo sapiens, UniProt Q15418); settings: Protein RPS6KA1; DSF; average of three replicates
T5 construct: Recombinant protein kinase domains with a concentration of 2 μM
Method in brief: as §1

[6] = target: T6, ~100 representative kinases (Homo sapiens, UniProt P49674); settings: Protein CSNK1E; average of three replicates
T6 construct: Recombinant protein kinase domains with a concentration of 2 μM
Method in brief: as §1

[7] = target: T7, ~100 representative kinases (Homo sapiens, UniProt Q13873); settings: Protein BMPR2; average of three replicates
T7 construct: Recombinant protein kinase domains with a concentration of 2 μM
T7 sequence (Q13873 27-1038): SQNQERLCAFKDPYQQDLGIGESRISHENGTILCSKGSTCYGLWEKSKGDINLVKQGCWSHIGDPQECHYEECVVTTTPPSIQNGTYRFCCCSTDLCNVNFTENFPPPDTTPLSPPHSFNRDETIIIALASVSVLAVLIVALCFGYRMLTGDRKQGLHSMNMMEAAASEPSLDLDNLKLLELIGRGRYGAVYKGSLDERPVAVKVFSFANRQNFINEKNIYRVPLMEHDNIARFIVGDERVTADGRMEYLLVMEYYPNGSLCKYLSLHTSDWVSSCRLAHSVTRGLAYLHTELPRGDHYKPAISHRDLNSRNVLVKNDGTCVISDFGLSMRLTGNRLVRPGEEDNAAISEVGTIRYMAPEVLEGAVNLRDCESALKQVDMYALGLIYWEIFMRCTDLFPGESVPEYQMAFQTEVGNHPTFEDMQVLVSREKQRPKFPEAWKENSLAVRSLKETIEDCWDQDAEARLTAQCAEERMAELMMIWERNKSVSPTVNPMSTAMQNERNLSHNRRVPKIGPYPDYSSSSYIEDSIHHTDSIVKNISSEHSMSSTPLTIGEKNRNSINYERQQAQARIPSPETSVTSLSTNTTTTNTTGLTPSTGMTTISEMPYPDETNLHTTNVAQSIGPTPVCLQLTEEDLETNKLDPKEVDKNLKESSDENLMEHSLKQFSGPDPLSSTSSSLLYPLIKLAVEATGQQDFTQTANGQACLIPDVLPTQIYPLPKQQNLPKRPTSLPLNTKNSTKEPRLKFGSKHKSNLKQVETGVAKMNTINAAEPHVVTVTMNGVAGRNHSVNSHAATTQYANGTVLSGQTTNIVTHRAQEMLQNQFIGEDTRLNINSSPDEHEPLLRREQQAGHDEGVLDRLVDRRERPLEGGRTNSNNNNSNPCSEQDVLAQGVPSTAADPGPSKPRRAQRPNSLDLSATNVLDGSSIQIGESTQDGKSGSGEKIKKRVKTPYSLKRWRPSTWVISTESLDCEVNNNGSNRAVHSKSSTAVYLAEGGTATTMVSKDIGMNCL
Method in brief: as §1

[8] = target: T8, ~100 representative kinases (Homo sapiens, UniProt O75582); settings: Protein RPS6KA5; DSF; average of three replicates
T8 construct: Recombinant protein kinase domains with a concentration of 2 μM
Method in brief: as §1

T5 sequence (Q15418 whole entry, the tested form may be a part): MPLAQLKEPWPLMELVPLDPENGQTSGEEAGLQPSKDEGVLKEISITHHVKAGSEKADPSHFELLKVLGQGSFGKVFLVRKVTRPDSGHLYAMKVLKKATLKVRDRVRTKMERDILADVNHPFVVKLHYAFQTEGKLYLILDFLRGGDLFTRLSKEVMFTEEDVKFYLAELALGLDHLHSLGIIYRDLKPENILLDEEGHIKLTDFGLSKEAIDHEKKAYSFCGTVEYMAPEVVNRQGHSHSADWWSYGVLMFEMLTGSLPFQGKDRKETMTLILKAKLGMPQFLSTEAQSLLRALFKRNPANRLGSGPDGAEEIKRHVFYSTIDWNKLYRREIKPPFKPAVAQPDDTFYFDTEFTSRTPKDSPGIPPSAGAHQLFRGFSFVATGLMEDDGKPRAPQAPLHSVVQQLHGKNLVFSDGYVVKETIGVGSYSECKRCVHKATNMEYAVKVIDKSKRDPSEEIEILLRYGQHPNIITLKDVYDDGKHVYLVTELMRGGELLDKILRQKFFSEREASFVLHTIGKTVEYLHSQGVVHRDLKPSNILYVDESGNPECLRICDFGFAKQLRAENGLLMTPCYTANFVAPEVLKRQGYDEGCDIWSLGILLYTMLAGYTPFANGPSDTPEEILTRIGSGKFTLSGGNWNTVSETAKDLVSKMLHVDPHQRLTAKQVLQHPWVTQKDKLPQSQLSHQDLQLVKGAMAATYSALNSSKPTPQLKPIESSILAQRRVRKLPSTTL
T6 sequence (P49674 whole entry, the tested form may be a part): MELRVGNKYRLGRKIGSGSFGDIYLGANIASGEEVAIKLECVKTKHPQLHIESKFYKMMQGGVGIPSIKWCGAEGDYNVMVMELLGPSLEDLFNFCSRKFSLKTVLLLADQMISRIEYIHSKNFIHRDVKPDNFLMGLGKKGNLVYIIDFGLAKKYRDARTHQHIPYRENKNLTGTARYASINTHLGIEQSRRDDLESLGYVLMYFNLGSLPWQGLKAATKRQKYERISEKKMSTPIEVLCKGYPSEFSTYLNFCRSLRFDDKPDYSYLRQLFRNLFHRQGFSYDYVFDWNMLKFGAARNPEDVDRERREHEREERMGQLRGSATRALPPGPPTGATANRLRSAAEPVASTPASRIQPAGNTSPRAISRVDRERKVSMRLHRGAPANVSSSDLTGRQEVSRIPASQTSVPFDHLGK
T1 sequence (Q15375 28-998): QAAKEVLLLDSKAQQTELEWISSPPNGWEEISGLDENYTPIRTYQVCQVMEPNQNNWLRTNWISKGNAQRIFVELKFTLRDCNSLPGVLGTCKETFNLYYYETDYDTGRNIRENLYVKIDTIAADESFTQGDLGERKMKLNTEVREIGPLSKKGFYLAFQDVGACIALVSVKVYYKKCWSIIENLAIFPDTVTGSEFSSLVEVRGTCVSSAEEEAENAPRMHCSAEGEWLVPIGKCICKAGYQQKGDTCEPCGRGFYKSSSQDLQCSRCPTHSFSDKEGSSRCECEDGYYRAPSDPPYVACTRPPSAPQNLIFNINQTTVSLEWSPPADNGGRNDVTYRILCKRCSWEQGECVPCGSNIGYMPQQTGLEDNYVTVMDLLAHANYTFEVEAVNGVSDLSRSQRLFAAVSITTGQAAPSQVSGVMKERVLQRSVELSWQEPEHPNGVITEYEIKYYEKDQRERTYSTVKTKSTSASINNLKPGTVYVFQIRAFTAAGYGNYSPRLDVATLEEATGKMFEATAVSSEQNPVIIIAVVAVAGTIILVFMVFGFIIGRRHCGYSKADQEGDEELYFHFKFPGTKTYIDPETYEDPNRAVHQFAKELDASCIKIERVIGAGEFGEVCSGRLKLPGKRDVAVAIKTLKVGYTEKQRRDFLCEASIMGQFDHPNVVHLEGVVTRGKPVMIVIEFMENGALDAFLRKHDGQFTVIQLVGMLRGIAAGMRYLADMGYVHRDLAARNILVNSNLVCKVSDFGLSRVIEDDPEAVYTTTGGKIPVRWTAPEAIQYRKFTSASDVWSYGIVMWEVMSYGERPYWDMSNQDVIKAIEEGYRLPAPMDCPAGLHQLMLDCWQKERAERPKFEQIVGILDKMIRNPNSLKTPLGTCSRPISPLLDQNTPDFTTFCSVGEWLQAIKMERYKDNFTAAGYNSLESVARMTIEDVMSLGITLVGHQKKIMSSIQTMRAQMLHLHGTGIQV
T4 sequence (Q96RR4 whole entry, the tested form may be a part): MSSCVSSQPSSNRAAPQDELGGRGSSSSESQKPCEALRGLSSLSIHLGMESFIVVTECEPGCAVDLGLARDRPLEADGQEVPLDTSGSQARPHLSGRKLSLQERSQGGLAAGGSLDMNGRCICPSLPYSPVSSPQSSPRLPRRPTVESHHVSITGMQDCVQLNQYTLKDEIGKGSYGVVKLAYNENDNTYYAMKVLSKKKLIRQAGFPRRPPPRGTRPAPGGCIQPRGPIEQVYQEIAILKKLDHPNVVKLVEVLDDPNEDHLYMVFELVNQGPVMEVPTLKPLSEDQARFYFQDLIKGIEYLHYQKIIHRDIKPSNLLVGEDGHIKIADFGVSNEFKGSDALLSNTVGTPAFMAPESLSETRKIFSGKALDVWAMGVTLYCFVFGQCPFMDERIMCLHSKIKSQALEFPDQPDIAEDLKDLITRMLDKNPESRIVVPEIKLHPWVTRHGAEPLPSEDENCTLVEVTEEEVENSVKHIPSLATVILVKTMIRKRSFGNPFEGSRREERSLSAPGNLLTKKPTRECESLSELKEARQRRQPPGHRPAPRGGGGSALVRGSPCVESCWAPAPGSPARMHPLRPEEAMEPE
T8 sequence (O75582 whole entry, the tested form may be a part): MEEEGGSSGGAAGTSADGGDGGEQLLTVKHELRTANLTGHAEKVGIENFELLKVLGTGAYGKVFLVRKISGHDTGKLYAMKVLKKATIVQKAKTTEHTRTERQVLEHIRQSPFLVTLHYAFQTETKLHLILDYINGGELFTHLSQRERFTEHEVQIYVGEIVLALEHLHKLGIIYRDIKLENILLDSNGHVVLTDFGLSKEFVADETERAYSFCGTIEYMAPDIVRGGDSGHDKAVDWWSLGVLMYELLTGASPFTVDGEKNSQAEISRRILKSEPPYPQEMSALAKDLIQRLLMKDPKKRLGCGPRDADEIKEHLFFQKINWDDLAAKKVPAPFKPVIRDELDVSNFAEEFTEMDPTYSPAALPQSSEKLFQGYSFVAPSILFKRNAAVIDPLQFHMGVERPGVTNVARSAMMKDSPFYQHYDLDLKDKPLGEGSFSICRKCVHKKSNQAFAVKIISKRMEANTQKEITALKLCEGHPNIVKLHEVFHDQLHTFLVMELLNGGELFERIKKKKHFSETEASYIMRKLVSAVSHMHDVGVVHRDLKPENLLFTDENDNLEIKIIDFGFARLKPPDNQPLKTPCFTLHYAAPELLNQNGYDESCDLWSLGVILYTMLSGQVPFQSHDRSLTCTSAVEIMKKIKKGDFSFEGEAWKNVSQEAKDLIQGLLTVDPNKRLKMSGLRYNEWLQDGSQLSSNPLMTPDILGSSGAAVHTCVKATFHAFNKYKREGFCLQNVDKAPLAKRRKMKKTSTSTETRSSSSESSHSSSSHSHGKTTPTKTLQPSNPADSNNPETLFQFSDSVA

Row | dTm [1] [K] | dTm [2] [K] | dTm [3] [K] | dTm [4] [K] | dTm [5] [K] | dTm [6] [K] | dTm [7] [K] | dTm [8] [K] | Compound
1 | -1.83 | 3.88 | 0.10 | 8.67 | -0.19 | 7.33 | 0.82 | -0.28 | O=C(Nc1cccc(-c2c[nH]c3ncnc(N4CCOCC4)c23)c1)c1cccn(-c2ccc(F)cc2)c1=O [Compound 4]
2 | 2.40 | 4.58 | -2.18 | 9.68 | -0.38 | 6.66 | 0.10 | 1.50 | CC(C)(C)c1cccc(NC(=O)C2(C(=O)Nc3cccc(-c4c[nH]c5ncnc(N6CCOCC6)c45)c3)CC2)c1 [Compound 22]

Row | Compound | dTm [1] [K] | dTm [2] [K] | dTm [3] [K] | dTm [4] [K] | dTm [5] [K] | dTm [6] [K] | dTm [7] [K] | dTm [8] [K]
3 | CCSc1nc(NC)c2c(-c3cccc(NC(=O)Nc4cc(C(C)(C)C)nn4-c4ccc(C)cc4)c3)c[nH]c2n1 [Compound 32] | 0.38 | 0.25 | 0.22 | 2.43 | 0.43 | -0.41 | 0.45 | 0.23

From article PMC12136037, “Type II kinase inhibitors that target Parkinson’s disease–associated LRRK2” (Science Advances, 2025)
